Assay results: ChEMBL document CHEMBL3352227, “Synthesis, antimycobacterial and antibacterial evaluation of l-[(1R, 2S)-2-fluorocyclopropyl]fluoroquinolone derivatives containing an oxime functional moiety” (Eur J Med Chem, 2014)
Converted amounts (≈) assume the structure as drawn.

Test system: Escherichia coli
Test: Antibacterial activity against extended-spectrum beta-lactamase producing Escherichia coli 12-15 after 18 to 24 hrs by standard twofold serial dilution method
Type: functional

Question: `CCO/N=C1/CN(c2cc3c(cc2F)c(=O)c(C(=O)O)cn3[C@@H]2C[C@@H]2F)[C@@H]1CN` was tested. Which MIC did it give?
Answer: The MIC was greater than 128 µg/mL.

Test system: Klebsiella pneumoniae
Test: Antibacterial activity against extended-spectrum beta-lactamase producin Klebsiella pneumoniae 12-4 after 18 to 24 hrs by standard twofold serial dilution method
Type: functional

Question: For `CCO/N=C1/CN(c2cc3c(cc2F)c(=O)c(C(=O)O)cn3[C@@H]2C[C@@H]2F)[C@@H]1CN`, which MIC is on record?
Answer: Its MIC is 16 µg/mL (≈ 39.4 µM).

Test system: Klebsiella pneumoniae
Test: Antibacterial activity against extended-spectrum beta-lactamase producin Klebsiella pneumoniae 12-7 after 18 to 24 hrs by standard twofold serial dilution method
Type: functional

Question: Which MIC does the source give for `CCO/N=C1/CN(c2cc3c(cc2F)c(=O)c(C(=O)O)cn3[C@@H]2C[C@@H]2F)[C@@H]1CN` here?
Answer: Its MIC is 1 µg/mL (≈ 2.46 µM).

Test system: Escherichia coli
Test: Antibacterial activity against Escherichia coli 12-1 after 18 to 24 hrs by standard twofold serial dilution method
Type: functional

Question: `CCO/N=C1/CN(c2cc3c(cc2F)c(=O)c(C(=O)O)cn3[C@@H]2C[C@@H]2F)[C@@H]1CN` was tested. Which MIC did it give?
Answer: Its MIC is 0.25 µg/mL (≈ 0.615 µM).

Test system: Staphylococcus aureus
Test: Antibacterial activity against methicillin-sensitive Staphylococcus aureus 12-4 after 18 to 24 hrs by standard twofold serial dilution method
Type: functional

Question: For `CCO/N=C1/CN(c2cc3c(cc2F)c(=O)c(C(=O)O)cn3[C@@H]2C[C@@H]2F)[C@@H]1CN`, which MIC is on record?
Answer: The MIC was 0.03 µg/mL (≈ 0.0738 µM).

Test system: Staphylococcus aureus
Test: Antibacterial activity against methicillin-sensitive Staphylococcus aureus 12-1 after 18 to 24 hrs by standard twofold serial dilution method
Type: functional

Question: `CCO/N=C1/CN(c2cc3c(cc2F)c(=O)c(C(=O)O)cn3[C@@H]2C[C@@H]2F)[C@@H]1CN` was tested. Which MIC did it give?
Answer: The MIC was 0.06 µg/mL (≈ 0.148 µM).

Test system: Klebsiella pneumoniae
Test: Antibacterial activity against Klebsiella pneumoniae 12-1 after 18 to 24 hrs by standard twofold serial dilution method
Type: functional

Question: For `CCO/N=C1/CN(c2cc3c(cc2F)c(=O)c(C(=O)O)cn3[C@@H]2C[C@@H]2F)[C@@H]1CN`, which MIC is on record?
Answer: Its MIC is 0.25 µg/mL (≈ 0.615 µM).

Test system: Staphylococcus epidermidis
Test: Antibacterial activity against methicillin-sensitive Staphylococcus epidermidis 12-6 after 18 to 24 hrs by standard twofold serial dilution method
Type: functional

Question: How did the MIC turn out when `CCO/N=C1/CN(c2cc3c(cc2F)c(=O)c(C(=O)O)cn3[C@@H]2C[C@@H]2F)[C@@H]1CN` was run?
Answer: The MIC was 0.06 µg/mL (≈ 0.148 µM).

Test system: Escherichia coli
Test: Antibacterial activity against extended-spectrum beta-lactamase producing Escherichia coli 12-14 after 18 to 24 hrs by standard twofold serial dilution method
Type: functional

Question: Which MIC does the source give for `CCO/N=C1/CN(c2cc3c(cc2F)c(=O)c(C(=O)O)cn3[C@@H]2C[C@@H]2F)[C@@H]1CN` here?
Answer: Its MIC is 64 µg/mL (≈ 157 µM).

Test system: Streptococcus pneumoniae
Test: Antibacterial activity against Streptococcus pneumoniae 12-18 after 18 to 24 hrs by standard twofold serial dilution method
Type: functional

Question: Which MIC does the source give for `CCO/N=C1/CN(c2cc3c(cc2F)c(=O)c(C(=O)O)cn3[C@@H]2C[C@@H]2F)[C@@H]1CN` here?
Answer: Its MIC is 1 µg/mL (≈ 2.46 µM).

Test system: Staphylococcus aureus
Test: Antibacterial activity against methicillin-resistant Staphylococcus aureus 12-2 after 18 to 24 hrs by standard twofold serial dilution method
Type: functional

Question: `CCO/N=C1/CN(c2cc3c(cc2F)c(=O)c(C(=O)O)cn3[C@@H]2C[C@@H]2F)[C@@H]1CN` was tested. Which MIC did it give?
Answer: Its MIC is 32 µg/mL (≈ 78.7 µM).

Test system: Staphylococcus epidermidis
Test: Antibacterial activity against methicillin-sensitive Staphylococcus epidermidis 12-8 after 18 to 24 hrs by standard twofold serial dilution method
Type: functional

Question: Which MIC does the source give for `CCO/N=C1/CN(c2cc3c(cc2F)c(=O)c(C(=O)O)cn3[C@@H]2C[C@@H]2F)[C@@H]1CN` here?
Answer: The MIC was 4 µg/mL (≈ 9.84 µM).

Test system: Klebsiella pneumoniae
Test: Antibacterial activity against extended-spectrum beta-lactamase producin Klebsiella pneumoniae 12-14 after 18 to 24 hrs by standard twofold serial dilution method
Type: functional

Question: For `CCO/N=C1/CN(c2cc3c(cc2F)c(=O)c(C(=O)O)cn3[C@@H]2C[C@@H]2F)[C@@H]1CN`, which MIC is on record?
Answer: Its MIC is 64 µg/mL (≈ 157 µM).

Test system: Escherichia coli
Test: Antibacterial activity against extended-spectrum beta-lactamase producing Escherichia coli 12-3 after 18 to 24 hrs by standard twofold serial dilution method
Type: functional

Question: With `CCO/N=C1/CN(c2cc3c(cc2F)c(=O)c(C(=O)O)cn3[C@@H]2C[C@@H]2F)[C@@H]1CN` as the molecule, how does the MIC read?
Answer: Its MIC is 16 µg/mL (≈ 39.4 µM).

Test system: Staphylococcus aureus
Test: Antibacterial activity against methicillin-sensitive Staphylococcus aureus 12-5 after 18 to 24 hrs by standard twofold serial dilution method
Type: functional

Question: `CCO/N=C1/CN(c2cc3c(cc2F)c(=O)c(C(=O)O)cn3[C@@H]2C[C@@H]2F)[C@@H]1CN` was tested. Which MIC did it give?
Answer: The MIC was 0.03 µg/mL (≈ 0.0738 µM).

Test system: Staphylococcus aureus
Test: Antibacterial activity against methicillin-resistant Staphylococcus aureus 12-5 after 18 to 24 hrs by standard twofold serial dilution method
Type: functional

Question: Which MIC does the source give for `CCO/N=C1/CN(c2cc3c(cc2F)c(=O)c(C(=O)O)cn3[C@@H]2C[C@@H]2F)[C@@H]1CN` here?
Answer: The MIC was 32 µg/mL (≈ 78.7 µM).

Test system: Pseudomonas aeruginosa
Test: Antibacterial activity against Pseudomonas aeruginosa 12-12 after 18 to 24 hrs by standard twofold serial dilution method
Type: functional

Question: `CCO/N=C1/CN(c2cc3c(cc2F)c(=O)c(C(=O)O)cn3[C@@H]2C[C@@H]2F)[C@@H]1CN` was tested. Which MIC did it give?
Answer: Its MIC is 1 µg/mL (≈ 2.46 µM).

Test system: Escherichia coli
Test: Antibacterial activity against Escherichia coli ATCC 25922 after 18 to 24 hrs by standard twofold serial dilution method
Type: functional

Question: How did the MIC turn out when `CCO/N=C1/CN(c2cc3c(cc2F)c(=O)c(C(=O)O)cn3[C@@H]2C[C@@H]2F)[C@@H]1CN` was run?
Answer: Its MIC is 0.06 µg/mL (≈ 0.148 µM).

Test system: Staphylococcus aureus
Test: Antibacterial activity against Staphylococcus aureus ATCC 25923 after 18 to 24 hrs by standard twofold serial dilution method
Type: functional

Question: With `CCO/N=C1/CN(c2cc3c(cc2F)c(=O)c(C(=O)O)cn3[C@@H]2C[C@@H]2F)[C@@H]1CN` as the molecule, how does the MIC read?
Answer: The MIC was less than 0.008 µg/mL.

Test system: Klebsiella pneumoniae
Test: Antibacterial activity against Klebsiella pneumoniae 12-2 after 18 to 24 hrs by standard twofold serial dilution method
Type: functional

Question: With `CCO/N=C1/CN(c2cc3c(cc2F)c(=O)c(C(=O)O)cn3[C@@H]2C[C@@H]2F)[C@@H]1CN` as the molecule, how does the MIC read?
Answer: The MIC was 0.25 µg/mL (≈ 0.615 µM).

Test system: Mycobacterium tuberculosis
Test: Antimycobacterial activity against Mycobacterium tuberculosis H37Rv ATCC 27294 by MABA method
Type: functional

Question: With `CCO/N=C1/CN(c2cc3c(cc2F)c(=O)c(C(=O)O)cn3[C@@H]2C[C@@H]2F)[C@@H]1CN` as the molecule, how does the MIC read?
Answer: The MIC was 2 µg/mL (≈ 4.92 µM).

Test system: Klebsiella pneumoniae
Test: Antibacterial activity against extended-spectrum beta-lactamase producin Klebsiella pneumoniae 12-3 after 18 to 24 hrs by standard twofold serial dilution method
Type: functional

Question: For `CCO/N=C1/CN(c2cc3c(cc2F)c(=O)c(C(=O)O)cn3[C@@H]2C[C@@H]2F)[C@@H]1CN`, which MIC is on record?
Answer: The MIC was 64 µg/mL (≈ 157 µM).

Test system: Staphylococcus epidermidis
Test: Antibacterial activity against methicillin-sensitive Staphylococcus epidermidis 12-1 after 18 to 24 hrs by standard twofold serial dilution method
Type: functional

Question: How did the MIC turn out when `CCO/N=C1/CN(c2cc3c(cc2F)c(=O)c(C(=O)O)cn3[C@@H]2C[C@@H]2F)[C@@H]1CN` was run?
Answer: Its MIC is 0.06 µg/mL (≈ 0.148 µM).

Test system: Staphylococcus epidermidis
Test: Antibacterial activity against methicillin-resistant Staphylococcus epidermidis 12-1 after 18 to 24 hrs by standard twofold serial dilution method
Type: functional

Question: How did the MIC turn out when `CCO/N=C1/CN(c2cc3c(cc2F)c(=O)c(C(=O)O)cn3[C@@H]2C[C@@H]2F)[C@@H]1CN` was run?
Answer: Its MIC is 8 µg/mL (≈ 19.7 µM).

Test system: Staphylococcus aureus
Test: Antibacterial activity against methicillin-resistant Staphylococcus aureus 12-4 after 18 to 24 hrs by standard twofold serial dilution method
Type: functional

Question: For `CCO/N=C1/CN(c2cc3c(cc2F)c(=O)c(C(=O)O)cn3[C@@H]2C[C@@H]2F)[C@@H]1CN`, which MIC is on record?
Answer: The MIC was 32 µg/mL (≈ 78.7 µM).

Test system: Pseudomonas aeruginosa
Test: Antibacterial activity against Pseudomonas aeruginosa 12-14 after 18 to 24 hrs by standard twofold serial dilution method
Type: functional

Question: For `CCO/N=C1/CN(c2cc3c(cc2F)c(=O)c(C(=O)O)cn3[C@@H]2C[C@@H]2F)[C@@H]1CN`, which MIC is on record?
Answer: Its MIC is 32 µg/mL (≈ 78.7 µM).

Test system: Staphylococcus epidermidis
Test: Antibacterial activity against methicillin-sensitive Staphylococcus epidermidis 12-3 after 18 to 24 hrs by standard twofold serial dilution method
Type: functional

Question: With `CCO/N=C1/CN(c2cc3c(cc2F)c(=O)c(C(=O)O)cn3[C@@H]2C[C@@H]2F)[C@@H]1CN` as the molecule, how does the MIC read?
Answer: The MIC was 0.125 µg/mL (≈ 0.308 µM).

Test system: Staphylococcus aureus
Test: Antibacterial activity against methicillin-sensitive Staphylococcus aureus 12-2 after 18 to 24 hrs by standard twofold serial dilution method
Type: functional

Question: With `CCO/N=C1/CN(c2cc3c(cc2F)c(=O)c(C(=O)O)cn3[C@@H]2C[C@@H]2F)[C@@H]1CN` as the molecule, how does the MIC read?
Answer: Its MIC is 0.06 µg/mL (≈ 0.148 µM).

Test system: Klebsiella pneumoniae
Test: Antibacterial activity against Klebsiella pneumoniae 12-4 after 18 to 24 hrs by standard twofold serial dilution method
Type: functional

Question: How did the MIC turn out when `CCO/N=C1/CN(c2cc3c(cc2F)c(=O)c(C(=O)O)cn3[C@@H]2C[C@@H]2F)[C@@H]1CN` was run?
Answer: The MIC was 0.25 µg/mL (≈ 0.615 µM).

Test system: Staphylococcus epidermidis
Test: Antibacterial activity against methicillin-resistant Staphylococcus epidermidis 12-6 after 18 to 24 hrs by standard twofold serial dilution method
Type: functional

Question: How did the MIC turn out when `CCO/N=C1/CN(c2cc3c(cc2F)c(=O)c(C(=O)O)cn3[C@@H]2C[C@@H]2F)[C@@H]1CN` was run?
Answer: Its MIC is 64 µg/mL (≈ 157 µM).

Test system: Escherichia coli
Test: Antibacterial activity against extended-spectrum beta-lactamase producing Escherichia coli 12-2 after 18 to 24 hrs by standard twofold serial dilution method
Type: functional

Question: With `CCO/N=C1/CN(c2cc3c(cc2F)c(=O)c(C(=O)O)cn3[C@@H]2C[C@@H]2F)[C@@H]1CN` as the molecule, how does the MIC read?
Answer: Its MIC is 128 µg/mL (≈ 315 µM).

Test system: Streptococcus pneumoniae
Test: Antibacterial activity against Streptococcus pneumoniae ATCC 49619 after 18 to 24 hrs by standard twofold serial dilution method
Type: functional

Question: How did the MIC turn out when `CCO/N=C1/CN(c2cc3c(cc2F)c(=O)c(C(=O)O)cn3[C@@H]2C[C@@H]2F)[C@@H]1CN` was run?
Answer: Its MIC is 0.25 µg/mL (≈ 0.615 µM).
